Laboratory results as given in patent US7825256B2, “Inducible nitric oxide synthase dimerization inhibitors” (Kalypsys, Inc., priority 2004, dated 2010).

Experiments:
hiNOS = biological target: T1, hiNOS (Homo sapiens, UniProt P35228); assay: DAN assay, hiNOS expressed in transiently transfected HEK293 cells; format: cell-based; conditions: HEK293 cells transiently transfected with hiNOS
T1 construct: expressed in transfected cells; host or cells: HEK293
Procedure, shortened: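 Human iNOS, nNOS or eNOS transiently expressed in HEK293 cells, with nNOS and eNOS needing added cofactors for activity. NO production is read as nitrite by fluorometry: 2,3-diaminonaphthalene forms fluorescent […], detecting 10 nM to 10 μM nitrite.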

hnNOS = biological target: T2, hnNOS (Homo sapiens, UniProt P29475); assay: DAN assay, hnNOS expressed in transiently transfected HEK293 cells; format: cell-based; conditions: HEK293 cells transiently transfected with hnNOS
T2 construct: expressed in transfected cells; host or cells: HEK293
From the text: The source of nitric oxide synthase (NOS) enzyme can be generated in several ways including induction of endogenous iNOS using cytokines and/or lipopolysaccharide (LPS) in various cell types known in the art. Alternatively, the gene encoding the enzyme can be cloned and the enzyme can be generated in cells via heterologous expression from a transient or stable expression plasmid with suitable features for protein expression as are known in the art. Enzymatic activity (nitric oxide production) is calcium independent for iNOS, while the constitutive NOS isoforms, nNOS and eNOS, become active with the addition of various cofactors added to cellular media or extract as are well known in the art. Enzymes specified in Table 1 were expressed in HEK293 cells transiently transfected with the indicated NOS isoform.
A major metabolic pathway for nitric oxide is to nitrate and nitrite, which are stable metabolites within tissue culture, tissue, plasma, and urine (S Moncada, A Higgs, N Eng J Med 329, 2002 (1993)).
The level of nitrate or nitrite in the specimen can be quantified by any method known in the art which provides adequate sensitivity and reproducibility. A variety of protocols have also been described for detecting and quantifying nitrite and nitrate levels in biological fluids by ion chromatography (e.g., S A Everett et al., J. Chromatogr. 706, 437 (1995); J M Monaghan et al., J. Chromatogr. 770, 143 (1997)), high-performance liquid chromatography (e.g., M Kelm et al., Cardiovasc. Res. 41, 765 (1999)), and capillary electrophoresis (M A Friedberg et al., J. Chromatogr. 781, 491 (1997)). […] Using 2,3-diaminonaphthalene (“DAN”), researchers have developed a rapid, quantitative fluorometric assay that can detect from 10 nM to 10 μM nitrite and is compatible with a multi-well microplate format. […]
A specimen can be processed prior to determination of nitrate or nitrite as required by the quantification method, or in order to improve the results, or for the convenience of the investigator. […]

rat = assay: Carrageenan test (inflamed pain); format: in vivo; conditions: inhibition class
From the text: Injection of carrageenan subcutaneously into the hind foot (paw) of a rat induces robust inflammation and pain. The inflammatory response begins 1-2 hrs post-carrageenan injection and persists for at least five hours following inoculation. In addition, the rat's inflamed hind paw is sensitive to noxious (hyperalgesia) or innocuous (allodynia) stimuli, compared to the contralateral hind paw. Compounds can be evaluated in this model for anti-hyperalgesia and anti-inflammatory activity. […] It is possible that some compounds will affect the inflamed paw and not affect the responses of the contralateral paw.
Embodiments of the carrageenan foot edema test are performed with materials, reagents and procedures essentially as described by Winter, et al., (Proc. Soc. Exp. Biol. Med., 111, 544 (1962)). […] The rats are evaluated for their responsiveness to noxious (paw pinch, plantar test) or innocuous (cold plate, von Frey filaments) stimuli.
In a prophylactic embodiment, following determination of “Pre-carrageenan” responses, a subplantar injection of the test compound or a placebo are administered. […] Three hours (and optionally five hours) after carrageenan injection, the rats are evaluated for their responsiveness to noxious or innocuous stimuli and the paw volume was again measured. […]

T2 sequence (P29475 whole entry): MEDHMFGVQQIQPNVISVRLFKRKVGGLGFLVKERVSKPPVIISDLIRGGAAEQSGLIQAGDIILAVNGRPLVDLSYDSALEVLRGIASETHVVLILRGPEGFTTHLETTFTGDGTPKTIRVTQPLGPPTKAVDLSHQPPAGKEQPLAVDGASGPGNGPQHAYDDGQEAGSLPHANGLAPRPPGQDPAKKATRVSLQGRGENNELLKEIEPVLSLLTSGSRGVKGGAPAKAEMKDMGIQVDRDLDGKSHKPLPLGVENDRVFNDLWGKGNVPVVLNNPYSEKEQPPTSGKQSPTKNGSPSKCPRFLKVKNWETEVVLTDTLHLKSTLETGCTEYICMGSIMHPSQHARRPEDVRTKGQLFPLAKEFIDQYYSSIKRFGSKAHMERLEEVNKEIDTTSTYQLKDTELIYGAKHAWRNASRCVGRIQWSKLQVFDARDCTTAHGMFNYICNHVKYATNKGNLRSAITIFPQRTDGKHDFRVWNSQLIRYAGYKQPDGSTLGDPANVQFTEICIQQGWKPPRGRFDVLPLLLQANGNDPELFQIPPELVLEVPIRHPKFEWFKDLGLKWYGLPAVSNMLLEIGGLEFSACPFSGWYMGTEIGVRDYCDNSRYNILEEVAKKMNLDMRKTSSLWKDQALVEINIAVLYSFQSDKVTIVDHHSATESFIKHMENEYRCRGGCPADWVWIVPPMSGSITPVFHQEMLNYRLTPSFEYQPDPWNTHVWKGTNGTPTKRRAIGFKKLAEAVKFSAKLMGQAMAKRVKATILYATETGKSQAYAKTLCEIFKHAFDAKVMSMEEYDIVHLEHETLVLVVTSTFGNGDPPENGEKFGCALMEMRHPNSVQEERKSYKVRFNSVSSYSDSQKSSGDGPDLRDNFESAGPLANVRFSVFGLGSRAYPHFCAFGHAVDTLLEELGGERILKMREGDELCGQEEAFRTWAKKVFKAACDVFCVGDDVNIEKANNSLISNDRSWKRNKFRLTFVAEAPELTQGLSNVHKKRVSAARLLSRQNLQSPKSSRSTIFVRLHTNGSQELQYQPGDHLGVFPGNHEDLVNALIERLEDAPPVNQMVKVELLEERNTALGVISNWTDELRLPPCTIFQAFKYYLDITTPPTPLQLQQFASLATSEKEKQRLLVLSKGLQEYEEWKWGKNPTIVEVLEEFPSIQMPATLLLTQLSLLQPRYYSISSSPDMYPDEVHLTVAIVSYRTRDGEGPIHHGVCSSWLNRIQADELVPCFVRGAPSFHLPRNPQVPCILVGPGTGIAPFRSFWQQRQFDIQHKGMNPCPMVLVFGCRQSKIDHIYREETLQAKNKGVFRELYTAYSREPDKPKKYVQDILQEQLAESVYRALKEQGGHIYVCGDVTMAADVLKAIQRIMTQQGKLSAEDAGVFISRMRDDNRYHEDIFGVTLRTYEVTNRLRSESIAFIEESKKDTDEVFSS

Row | Structure (SMILES) | EC50 (hiNOS) | EC50 (hnNOS) | Carrageenan Inflamed Pain at 30 mg/kg (rat)
1 | Cc1cc(C2CCCN2C(=O)CNCc2ccc3c(c2)OCO3)nc(-n2ccnc2)n1 (stereo not shown) [Example 5] | < 1 µM | > 1 µM | –
2 | CN(CCCNCc1ccc2c(c1)OCO2)c1nc(-n2ccnc2)ns1 [Example 2, N′-Benzo[1,3]dioxol-5-ylmethyl-N-(3-imidazol-1-yl-[1,2,4]thiadiazol-5-yl)-N-methyl-propane-1,3-diamine] | < 1 µM | > 1 µM | − ((−) = <40% inhibition)
3 | Cc1cc(C2CCCN2C(=O)NCCc2ccc3c(c2)OCO3)nc(-n2ccnc2)n1 (stereo not shown) [Example 4, 2-(2-Imidazol-1-yl-6-methyl-pyrimidin-4-yl)-pyrrolidine-1-carboxylic acid (2-benzo[1,3]dioxol-5-yl-ethyl)-amide] | < 1 µM | 0.7 µM | –
